Reference: PubChem BioAssay (NCI)
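Results reflect a 48-hour exposure of cells in 96-well plates to compound at five concentrations. GI50 is the concentration that inhibits growth by half. TGI: concentration producing complete growth inhibition.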

Columns and labels:
Assay in all cases: NCI tumour cell line growth inhibition, 48 h
786-0 renal = tested on: 786-0 renal
A498 renal = tested on: A498 renal
A549 NSCLC = tested on: A549 NSCLC
ACHN renal = tested on: ACHN renal
BT-549 breast = tested on: BT-549 breast
CAKI-1 renal = tested on: CAKI-1 renal
CCRF-CEM leukemia = tested on: CCRF-CEM leukemia
COLO 205 colon = tested on: COLO 205 colon
DU-145 prostate = tested on: DU-145 prostate
EKVX NSCLC = tested on: EKVX NSCLC
HCC-2998 colon = tested on: HCC-2998 colon
HCT-116 colon = tested on: HCT-116 colon
HCT-15 colon = tested on: HCT-15 colon
HL-60(TB) leukemia = tested on: HL-60(TB) leukemia
HOP-62 NSCLC = tested on: HOP-62 NSCLC
HOP-92 NSCLC = tested on: HOP-92 NSCLC
HS 578T breast = tested on: HS 578T breast
HT29 colon = tested on: HT29 colon
IGROV1 ovarian = tested on: IGROV1 ovarian
K-562 leukemia = tested on: K-562 leukemia
KM12 colon = tested on: KM12 colon
LOX IMVI melanoma = tested on: LOX IMVI melanoma
M14 melanoma = tested on: M14 melanoma
MALME-3M melanoma = tested on: MALME-3M melanoma
MCF7 breast = tested on: MCF7 breast
MDA-MB-231 breast = tested on: MDA-MB-231 breast
MOLT-4 leukemia = tested on: MOLT-4 leukemia
NCI-H23 lung = tested on: NCI-H23 lung
NCI-H460 lung = tested on: NCI-H460 lung
NCI-H522 lung = tested on: NCI-H522 lung
NCI/ADR-RES ovarian = tested on: NCI/ADR-RES ovarian
OVCAR-3 ovarian = tested on: OVCAR-3 ovarian
OVCAR-4 ovarian = tested on: OVCAR-4 ovarian
OVCAR-5 ovarian = tested on: OVCAR-5 ovarian
OVCAR-8 ovarian = tested on: OVCAR-8 ovarian
PC-3 prostate = tested on: PC-3 prostate
RPMI-8226 leukemia = tested on: RPMI-8226 leukemia
RXF 393 renal = tested on: RXF 393 renal
SF-268 CNS = tested on: SF-268 CNS
SF-295 CNS = tested on: SF-295 CNS
SF-539 CNS = tested on: SF-539 CNS
SK-MEL-2 melanoma = tested on: SK-MEL-2 melanoma
SK-MEL-28 melanoma = tested on: SK-MEL-28 melanoma
SK-MEL-5 melanoma = tested on: SK-MEL-5 melanoma
SK-OV-3 ovarian = tested on: SK-OV-3 ovarian
SN12C renal = tested on: SN12C renal
SNB-19 CNS = tested on: SNB-19 CNS
SNB-75 CNS = tested on: SNB-75 CNS
SR leukemia = tested on: SR leukemia
SW-620 colon = tested on: SW-620 colon
T-47D breast = tested on: T-47D breast
TK-10 renal = tested on: TK-10 renal
U251 CNS = tested on: U251 CNS
UACC-257 melanoma = tested on: UACC-257 melanoma
UACC-62 melanoma = tested on: UACC-62 melanoma
UO-31 renal = tested on: UO-31 renal

With COc1ccc2c(c1OC)C(=O)OC2C1c2c(c(N)c3c(c2OC)OCO3)CCN1C (configuration not stated) the GI50 (786-0 renal) was 7.51 µM, the TGI (786-0 renal) was over 100 µM and the GI50 (A498 renal) was 2.44 µM. The TGI (A498 renal) was 13.3 µM, the GI50 (A549 NSCLC) was 6.23 µM and the TGI (A549 NSCLC) was over 100 µM. It also gave a GI50 (ACHN renal) of 6.75 µM, a TGI (ACHN renal) of over 100 µM and a GI50 (BT-549 breast) of 2.32 µM. It also gave a TGI (BT-549 breast) of 9.12 µM, a GI50 (CAKI-1 renal) of 3.81 µM and a TGI (CAKI-1 renal) of over 100 µM. For the same molecule, the GI50 (CCRF-CEM leukemia) was 2.63 µM, the TGI (CCRF-CEM leukemia) was 8.44 µM and the GI50 (COLO 205 colon) was 5.6 µM. It also gave a TGI (COLO 205 colon) of 26 µM, a GI50 (DU-145 prostate) of 2.8 µM and a TGI (DU-145 prostate) of 12 µM. For the same molecule, the GI50 (EKVX NSCLC) was 5.18 µM, the TGI (EKVX NSCLC) was over 100 µM and the GI50 (HCC-2998 colon) was 6.86 µM. For the same molecule, the TGI (HCC-2998 colon) was 28.2 µM, the GI50 (HCT-116 colon) was 3.19 µM and the TGI (HCT-116 colon) was 14.6 µM. It also gave a GI50 (HCT-15 colon) of 2.64 µM, a TGI (HCT-15 colon) of 8.38 µM and a GI50 (HL-60(TB) leukemia) of 4.02 µM. For the same molecule, the TGI (HL-60(TB) leukemia) was 26.4 µM, the GI50 (HOP-62 NSCLC) was 5.15 µM and the TGI (HOP-62 NSCLC) was over 100 µM. It also gave a GI50 (HOP-92 NSCLC) of 12.2 µM, a TGI (HOP-92 NSCLC) of 59.3 µM and a GI50 (HS 578T breast) of 2.75 µM. For the same molecule, the TGI (HS 578T breast) was 9.39 µM, the GI50 (HT29 colon) was 3.96 µM and the TGI (HT29 colon) was 52.8 µM. The GI50 (IGROV1 ovarian) was 1.68 µM, the TGI (IGROV1 ovarian) was 6.68 µM and the GI50 (K-562 leukemia) was 4.43 µM. For the same molecule, the TGI (K-562 leukemia) was over 100 µM, the GI50 (KM12 colon) was 3.33 µM and the TGI (KM12 colon) was 62.7 µM. For the same molecule, the GI50 (LOX IMVI melanoma) was 4.8 µM, the TGI (LOX IMVI melanoma) was 24 µM and the GI50 (M14 melanoma) was 1.86 µM. The TGI (M14 melanoma) was 4.41 µM, the GI50 (MALME-3M melanoma) was 6.51 µM and the TGI (MALME-3M melanoma) was over 100 µM. It also gave a GI50 (MCF7 breast) of 3.11 µM, a TGI (MCF7 breast) of 16.1 µM and a GI50 (MDA-MB-231 breast) of 3.15 µM. The TGI (MDA-MB-231 breast) was 20.7 µM, the GI50 (MOLT-4 leukemia) was 4.96 µM and the TGI (MOLT-4 leukemia) was over 100 µM. The GI50 (NCI-H23 lung) was 4.74 µM, the TGI (NCI-H23 lung) was over 100 µM and the GI50 (NCI-H460 lung) was 3.37 µM. For the same molecule, the TGI (NCI-H460 lung) was 11.6 µM, the GI50 (NCI-H522 lung) was 2.07 µM and the TGI (NCI-H522 lung) was 5.3 µM. The GI50 (NCI/ADR-RES ovarian) was 1.58 µM, the TGI (NCI/ADR-RES ovarian) was 3.2 µM and the GI50 (OVCAR-3 ovarian) was 4.01 µM. The TGI (OVCAR-3 ovarian) was 34.6 µM, the GI50 (OVCAR-4 ovarian) was 5.33 µM and the TGI (OVCAR-4 ovarian) was over 100 µM. The GI50 (OVCAR-5 ovarian) was 9.35 µM, the TGI (OVCAR-5 ovarian) was 38.8 µM and the GI50 (OVCAR-8 ovarian) was 3.94 µM. It also gave a TGI (OVCAR-8 ovarian) of 35.2 µM, a GI50 (PC-3 prostate) of 3.42 µM and a TGI (PC-3 prostate) of over 100 µM. The GI50 (RPMI-8226 leukemia) was 3.04 µM, the TGI (RPMI-8226 leukemia) was 12.2 µM and the GI50 (RXF 393 renal) was 4.25 µM. For the same molecule, the TGI (RXF 393 renal) was over 100 µM, the GI50 (SF-268 CNS) was 4.57 µM and the TGI (SF-268 CNS) was 23 µM. For the same molecule, the GI50 (SF-295 CNS) was 5.59 µM, the TGI (SF-295 CNS) was 61.8 µM and the GI50 (SF-539 CNS) was 2.11 µM. It also gave a TGI (SF-539 CNS) of 5.53 µM, a GI50 (SK-MEL-2 melanoma) of 3.17 µM and a TGI (SK-MEL-2 melanoma) of 28.2 µM. It also gave a GI50 (SK-MEL-28 melanoma) of 8.71 µM, a TGI (SK-MEL-28 melanoma) of over 100 µM and a GI50 (SK-MEL-5 melanoma) of 3.03 µM. For the same molecule, the TGI (SK-MEL-5 melanoma) was 13.2 µM, the GI50 (SK-OV-3 ovarian) was 3.23 µM and the TGI (SK-OV-3 ovarian) was 23.4 µM. The GI50 (SN12C renal) was 4.46 µM, the TGI (SN12C renal) was 21.9 µM and the GI50 (SNB-19 CNS) was 2.7 µM. The TGI (SNB-19 CNS) was 9.25 µM, the GI50 (SNB-75 CNS) was 2.83 µM and the TGI (SNB-75 CNS) was 11.9 µM. It also gave a GI50 (SR leukemia) of 3.18 µM, a TGI (SR leukemia) of 29.2 µM and a GI50 (SW-620 colon) of 3.26 µM. It also gave a TGI (SW-620 colon) of over 100 µM, a GI50 (T-47D breast) of 2.63 µM and a TGI (T-47D breast) of 19.6 µM. It also gave a GI50 (TK-10 renal) of 6.57 µM, a TGI (TK-10 renal) of over 100 µM and a GI50 (U251 CNS) of 3.94 µM. It also gave a TGI (U251 CNS) of over 100 µM, a GI50 (UACC-257 melanoma) of 27.3 µM and a TGI (UACC-257 melanoma) of over 100 µM. The GI50 (UACC-62 melanoma) was 4.04 µM, the TGI (UACC-62 melanoma) was over 100 µM and the GI50 (UO-31 renal) was 5.28 µM. It also gave a TGI (UO-31 renal) of 92.8 µM.
